Test results from ChEMBL document CHEMBL1201862, “PubChem BioAssay data set” (2004).
Active and inactive are the calls of the source.

What was measured:
[1] = target: T1, Calpain-2 catalytic subunit (Sus scrofa, UniProt P43367); experiment: m-calpain protease blockers, concentration series – biochemical, fluorogenic peptide substrate, dose response (AID 1420); type: functional
T1 sequence (P43367 whole entry): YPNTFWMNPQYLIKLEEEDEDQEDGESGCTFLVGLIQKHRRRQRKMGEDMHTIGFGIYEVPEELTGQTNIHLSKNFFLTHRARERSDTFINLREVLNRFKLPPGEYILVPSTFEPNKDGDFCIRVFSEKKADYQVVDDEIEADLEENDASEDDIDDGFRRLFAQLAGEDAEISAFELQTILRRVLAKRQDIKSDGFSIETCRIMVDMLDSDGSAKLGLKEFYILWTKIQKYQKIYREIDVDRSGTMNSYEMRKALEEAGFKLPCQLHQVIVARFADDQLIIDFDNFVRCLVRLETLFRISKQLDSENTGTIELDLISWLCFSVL

[2] = target: T2, Rac GTPase-activating protein 1 (Homo sapiens, UniProt Q9H0H5); experiment: blockers of MgcRacGAP-driven Rac1 GTP hydrolysis – biochemical, ADP Hunter fluorescence, primary and confirmatory, confirmation (AID 624330); type: functional
T2 sequence (Q9H0H5 whole entry): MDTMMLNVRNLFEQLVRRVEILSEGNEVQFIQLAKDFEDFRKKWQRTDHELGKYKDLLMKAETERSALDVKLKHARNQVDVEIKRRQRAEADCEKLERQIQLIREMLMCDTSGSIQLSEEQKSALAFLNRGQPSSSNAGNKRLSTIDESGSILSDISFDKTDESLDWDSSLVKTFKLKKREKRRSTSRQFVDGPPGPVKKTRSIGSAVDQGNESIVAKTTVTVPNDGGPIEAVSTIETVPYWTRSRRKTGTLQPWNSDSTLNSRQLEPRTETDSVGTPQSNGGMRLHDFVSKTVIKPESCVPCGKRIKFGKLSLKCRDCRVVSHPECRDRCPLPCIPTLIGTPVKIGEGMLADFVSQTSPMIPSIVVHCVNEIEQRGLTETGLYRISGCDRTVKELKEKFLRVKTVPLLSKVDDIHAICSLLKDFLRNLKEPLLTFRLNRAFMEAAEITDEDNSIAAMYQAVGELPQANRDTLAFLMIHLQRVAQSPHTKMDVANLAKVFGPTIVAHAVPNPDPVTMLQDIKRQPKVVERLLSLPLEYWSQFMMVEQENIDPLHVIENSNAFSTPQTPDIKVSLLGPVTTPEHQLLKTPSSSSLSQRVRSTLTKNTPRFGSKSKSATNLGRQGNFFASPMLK

BJ [3] = experiment: BJ-TERT fibroblast viability loss – cell-based, RAS-independent, luminescence, dose response (AID 1933); type: functional; details: Homo sapiens
BJ [4] = experiment: cells; type: functional, cell-based; details: Homo sapiens
BJ [5] = experiment: BJ-TERT-LT-ST fibroblast viability loss – cell-based, RAS-independent, luminescence, dose response (AID 1935); type: functional; details: Homo sapiens;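 note: BJ fibroblasts immortalized with TERT plus LT and ST oncogenes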
[6] = DRD fibroblast viability loss – cell-based, non-viral oncogenic, luminescence, dose response (AID 1934); type: functional; details: Homo sapiens
[7] = target: T3, Heat shock factor protein 1 (Mus musculus, UniProt P38532); experiment: enhancement of HSF1-driven luciferase signal – cell-based, NIH3T3, luminescence, dose retest, confirmation (AID 435004); type: functional;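 note: stress induced by proteasome inhibitor MG132 added 30 min after compound; luciferase reporter driven by HSF1 response element in NIH3T3 cells; actives raise luminescence as potentiators of the MG132 stress response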
T3 sequence (P38532 whole entry): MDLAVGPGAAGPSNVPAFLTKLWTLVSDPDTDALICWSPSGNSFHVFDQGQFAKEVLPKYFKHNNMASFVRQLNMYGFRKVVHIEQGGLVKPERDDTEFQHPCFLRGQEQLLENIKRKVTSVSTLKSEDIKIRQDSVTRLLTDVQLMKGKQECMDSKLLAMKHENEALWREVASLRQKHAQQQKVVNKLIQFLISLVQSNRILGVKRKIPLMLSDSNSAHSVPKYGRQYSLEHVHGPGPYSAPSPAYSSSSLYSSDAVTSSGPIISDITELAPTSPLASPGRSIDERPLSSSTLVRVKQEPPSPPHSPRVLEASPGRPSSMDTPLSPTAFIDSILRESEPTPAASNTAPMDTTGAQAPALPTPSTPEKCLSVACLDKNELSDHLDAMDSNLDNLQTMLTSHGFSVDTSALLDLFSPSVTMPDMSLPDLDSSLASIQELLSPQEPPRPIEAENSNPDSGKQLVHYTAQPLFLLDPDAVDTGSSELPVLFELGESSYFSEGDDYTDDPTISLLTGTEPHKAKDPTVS

[8] = target: T4, Replicative DNA helicase DnaB (Mycobacterium tuberculosis, UniProt P9WMR3); experiment: DnaB intein splicing inhibitors, dose response, biochemical, cell-free fluorescence (AID 449749); type: functional
T4 sequence (P9WMR3 whole entry): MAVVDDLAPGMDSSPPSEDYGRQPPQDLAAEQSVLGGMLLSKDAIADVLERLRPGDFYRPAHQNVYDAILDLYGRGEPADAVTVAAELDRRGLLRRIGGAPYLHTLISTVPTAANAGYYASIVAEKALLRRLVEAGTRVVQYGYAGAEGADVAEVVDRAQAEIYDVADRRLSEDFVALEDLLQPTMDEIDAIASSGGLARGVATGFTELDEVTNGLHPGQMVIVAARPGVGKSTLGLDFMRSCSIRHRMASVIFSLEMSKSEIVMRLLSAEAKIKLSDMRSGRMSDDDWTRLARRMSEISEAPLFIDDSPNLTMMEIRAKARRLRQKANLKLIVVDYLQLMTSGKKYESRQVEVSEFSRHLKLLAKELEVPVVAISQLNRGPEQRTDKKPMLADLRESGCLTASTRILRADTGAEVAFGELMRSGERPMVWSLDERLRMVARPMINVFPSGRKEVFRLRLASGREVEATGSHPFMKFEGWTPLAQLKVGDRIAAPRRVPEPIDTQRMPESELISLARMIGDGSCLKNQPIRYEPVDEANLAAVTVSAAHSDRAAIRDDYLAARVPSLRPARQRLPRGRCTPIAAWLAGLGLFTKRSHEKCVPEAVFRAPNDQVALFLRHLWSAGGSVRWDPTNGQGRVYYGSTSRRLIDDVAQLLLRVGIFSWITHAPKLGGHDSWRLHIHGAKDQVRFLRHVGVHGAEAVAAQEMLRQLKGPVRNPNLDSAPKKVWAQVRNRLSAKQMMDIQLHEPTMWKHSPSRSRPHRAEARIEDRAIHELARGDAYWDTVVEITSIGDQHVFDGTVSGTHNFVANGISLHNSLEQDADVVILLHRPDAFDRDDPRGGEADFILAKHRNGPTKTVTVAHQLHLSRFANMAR

Protein RecA = target: T5, Protein RecA (Mycobacterium tuberculosis, UniProt P9WHJ3); experiment: Fluorescence Cell-Free Homogeneous Dose Retest to Identify Inhibitors of RecA-Intein Splicing Activity. [Related pubchem assays (depositor defined):AID2097, AID2223, AID489010, AID492950]; type: functional
T5 sequence (P9WHJ3 whole entry): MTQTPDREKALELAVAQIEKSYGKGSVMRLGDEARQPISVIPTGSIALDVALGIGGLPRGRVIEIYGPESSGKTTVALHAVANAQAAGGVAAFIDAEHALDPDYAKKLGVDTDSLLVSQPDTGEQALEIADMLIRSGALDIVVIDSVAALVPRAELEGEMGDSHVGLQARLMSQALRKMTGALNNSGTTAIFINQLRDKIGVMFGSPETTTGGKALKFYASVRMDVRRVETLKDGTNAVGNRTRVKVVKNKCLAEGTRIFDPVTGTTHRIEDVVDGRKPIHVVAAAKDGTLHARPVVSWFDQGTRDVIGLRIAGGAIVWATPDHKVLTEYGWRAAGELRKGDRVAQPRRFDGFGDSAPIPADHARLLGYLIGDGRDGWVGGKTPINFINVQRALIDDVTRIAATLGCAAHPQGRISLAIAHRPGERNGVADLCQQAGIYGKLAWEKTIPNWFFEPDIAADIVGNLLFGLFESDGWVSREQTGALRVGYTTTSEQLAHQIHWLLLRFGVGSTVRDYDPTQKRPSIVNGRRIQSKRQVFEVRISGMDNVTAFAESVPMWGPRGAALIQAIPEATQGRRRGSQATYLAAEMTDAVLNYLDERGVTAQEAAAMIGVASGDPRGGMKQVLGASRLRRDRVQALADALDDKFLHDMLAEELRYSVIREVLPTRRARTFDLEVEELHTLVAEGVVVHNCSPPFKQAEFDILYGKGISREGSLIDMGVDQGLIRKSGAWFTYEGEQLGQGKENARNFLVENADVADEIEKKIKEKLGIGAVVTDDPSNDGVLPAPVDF

[9] = luciferase reporter signal suppression in cells – H4 neuroglioma cells, luminescence, dose response (AID 1990); type: functional, cell-based
[10] = system: Streptococcus sp. 'group A'; experiment: Streptococcus pyogenes SK(-)GAS viability under kanamycin – luminescence, BacTiterGlo, confirmation, counter-screen for streptokinase expression inhibitor project, dose response (AID 1900); type: functional, organism-based
[11] = Luminescence Cell-Based Dose Response HTS to Identify Inhibitors of 5'UTR Stem-Loop Driven Prion Protein mRNA Translation in H4 Neuroglioblastoma Cells. [Related pubchem assays: 1827 (Project Summary), 1813 (Primary HTS)]; type: functional
[12] = alpha-synuclein stem-loop luciferase translation blockers – H4 neuroglioma cells, luminescence, confirmation (AID 1988); type: functional, cell-based
Streptokinase A = target: T6, Streptokinase A (Streptococcus pyogenes serotype M1, UniProt P10520); experiment: viability-normalized secreted streptokinase activity reduction – plasminogen activation absorbance, OD405, dose response (AID 1914); type: functional, Streptococcus pyogenes M1 GAS;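 note: secreted streptokinase activity via plasminogen activation per viability signal from cell pellet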
T6 sequence (P10520 whole entry): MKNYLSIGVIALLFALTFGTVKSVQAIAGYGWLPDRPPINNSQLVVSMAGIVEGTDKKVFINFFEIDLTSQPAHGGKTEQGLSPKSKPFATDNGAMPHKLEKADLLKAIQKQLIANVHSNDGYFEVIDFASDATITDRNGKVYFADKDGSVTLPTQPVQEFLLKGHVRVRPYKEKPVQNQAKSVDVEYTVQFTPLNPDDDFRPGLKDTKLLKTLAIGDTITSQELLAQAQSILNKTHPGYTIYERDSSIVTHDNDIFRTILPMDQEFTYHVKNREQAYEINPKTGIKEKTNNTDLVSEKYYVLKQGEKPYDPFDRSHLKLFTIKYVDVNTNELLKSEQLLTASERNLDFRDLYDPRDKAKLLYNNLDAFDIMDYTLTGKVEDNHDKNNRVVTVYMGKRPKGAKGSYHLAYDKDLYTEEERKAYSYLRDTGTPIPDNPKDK

Streptococcus = experiment: GAS UMAA2166 growth inhibition – luminescence, BacTiterGlo, counter-screen for streptokinase expression inhibitor project, dose response (AID 1915); type: functional, organism-based;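 note: potency for reduction of bacterial viability or growth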
INS1 = experiment: INS-1E survival protection against cytokine death – cell-based, luminescence, retest, dose response (AID 449756); type: functional; details: Rattus norvegicus;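 note: cell death triggered by IL-1 beta plus TNF-alpha plus IFN-gamma mixture; protective hits raise ATP signal compared with cytokine alone wells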
Large T antigen = Large T antigen (Simian virus 40, UniProt P03070); type: functional, Betapolyomavirus macacae;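 note: Confirmatory-stage PubChem screen for compounds that inhibit SV40 T antigen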
Large T antigen, sequence (P03070 whole entry): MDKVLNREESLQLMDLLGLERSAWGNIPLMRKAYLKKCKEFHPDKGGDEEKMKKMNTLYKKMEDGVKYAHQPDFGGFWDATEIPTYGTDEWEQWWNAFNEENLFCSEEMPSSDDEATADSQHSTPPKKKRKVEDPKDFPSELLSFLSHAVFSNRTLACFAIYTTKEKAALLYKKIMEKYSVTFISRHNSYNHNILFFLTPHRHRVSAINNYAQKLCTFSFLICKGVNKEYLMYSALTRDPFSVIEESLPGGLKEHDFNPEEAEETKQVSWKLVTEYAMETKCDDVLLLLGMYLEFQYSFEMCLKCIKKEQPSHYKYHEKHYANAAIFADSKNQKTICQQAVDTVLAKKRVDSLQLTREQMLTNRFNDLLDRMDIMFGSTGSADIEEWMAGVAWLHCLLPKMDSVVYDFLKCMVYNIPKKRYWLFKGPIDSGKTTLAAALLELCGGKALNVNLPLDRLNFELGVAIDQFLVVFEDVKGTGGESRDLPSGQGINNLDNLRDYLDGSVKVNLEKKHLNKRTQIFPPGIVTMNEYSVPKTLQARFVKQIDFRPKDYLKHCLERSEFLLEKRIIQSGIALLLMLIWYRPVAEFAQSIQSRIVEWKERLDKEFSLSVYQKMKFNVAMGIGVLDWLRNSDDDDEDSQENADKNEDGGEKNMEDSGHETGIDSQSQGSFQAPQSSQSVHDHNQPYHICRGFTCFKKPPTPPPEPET

[13] = Trypanosoma cruzi growth suppression in host cells – NIH3T3 host cells, beta-gal luminescence, confirmation (AID 2044); type: functional, cell-based;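 note: intracellular parasites grown in NIH/3T3 mouse fibroblasts as host cells; luminescent beta-galactosidase reporter signal from transgenic T. cruzi replicating inside host cells; inhibitors lower the luminescence signal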
[14] = NIH3T3 cell viability loss – ATP luminescence, mouse fibroblasts, counter-screen, dose response (AID 2010); type: functional, cell-based;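 note: cells exposed to compound for about 90 hours before reading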
[15] = target: Heat shock protein HSP 90-alpha (Homo sapiens, UniProt P07900); type: functional, organism-based

C=CCNc1ccc(N2C(=O)C3CCC(C)CC3C2=O)cc1[N+](=O)[O-] (stereo unspecified)
IC50 [1]: 4.48 µM (not active)

COc1ccc(NC(=O)CN2CCN(c3nc(-c4ccc(F)cc4)cs3)CC2)c(OC)c1
IC50 [1]: 5.73 µM (not active)

COC(=O)c1ccc(NC2(C#N)C(=O)Nc3ccccc32)cc1 (stereo unspecified)
IC50 [1]: > 50 µM (not active)

NS(=O)(=O)c1cccc(NC(=O)CN2CCC(Cc3ccccc3)CC2)c1
IC50 [1]: 25.9 µM (not active)

O=C(CNC1CCCCCC1)Nc1ccccc1N1CCOCC1
IC50 [2]: 177 µM (active)

ClC(Cl)(Cl)c1nc2ccccc2n2nncc12
EC50 (BJ [3]): 6.96 µM (inconclusive)
EC50 (BJ [4]): 13.7 µM (active)
EC50 (BJ [5]): 18.7 µM (active)
EC50 [6]: 13.1 µM (active)
EC50 [7]: 5.46 µM (active)
AC50 [8]: 39.3 µM (active)
EC50 (Protein RecA): 6.03 µM (active)

OC(COc1ccccc1)Cn1c2ccccc2c2ccccc21 (stereo unspecified)
IC50 [1]: 7.48 µM (not active)

Cc1cccc(-c2noc(CN(C(=O)/C=C/c3ccccc3Cl)C(C)C)n2)c1
IC50 [1]: 13.3 µM (not active)

O=C(N/N=C/c1cc([N+](=O)[O-])ccc1O)c1cccc(NC(=O)c2cccc(Cl)c2)c1
EC50 [9]: 12.7 µM (active)
EC50 [10]: 5.18 µM (active)
EC50 [11]: 13.3 µM (active)
EC50 [12]: 10.6 µM (active)
EC50 (Streptokinase A): > 150 µM (not active)
EC50 (Streptococcus): 18.7 µM (active)
AC50 (INS1): 2.18 µM (active)

COc1cc(/C=N/NC(=O)CCc2ccccc2)ccc1O
IC50 [2]: 28.7 µM (active)

COC(C(=O)N/N=C(\C)CC(=O)Nc1ccc(N(C)C)cc1)c1ccccc1 (stereo unspecified)
IC50 (Large T antigen): 11.1 µM (active)
IC50 [2]: 50.3 µM (active)

CCCCCCCCCCOC(=O)C[N+](C)(C)C/C=C(/C)Cl
AC50 (INS1): 13.3 µM (active)

Cc1ccnc(NC(=O)c2ccc([N+](=O)[O-])s2)c1
EC50 [13]: 0.743 µM (active)
EC50 [14]: > 60 µM (not active)
AC50 (INS1): 6.55 µM (active)

O=c1cc(-c2ccccc2)cc(-c2ccccc2)n1O
AC50 [15]: 1.13 µM (active)

COc1cc(CN(C)CCc2ccccn2)cc(OC)c1OC
IC50 [2]: 101 µM (active)

Cn1nnnc1SC(C(=O)Nc1cccc(C(F)(F)F)c1)c1ccccc1 (stereo unspecified)
IC50 [1]: 16.4 µM (active)

CC1CCN([S+]([O-])C23CC4CC(CC(C4)C2)C3)CC1 (stereo unspecified)
IC50 [1]: > 50 µM (not active)

Oc1nc(SCc2ccccc2Cl)nc(-c2ccc(Cl)cc2)n1
IC50 [1]: 4.51 µM (not active)

N#CC(c1ccncc1)(c1ncc(C(F)(F)F)cc1Cl)N1CCOCC1 (stereo unspecified)
IC50 [1]: 19.2 µM (not active)

Oc1ccc(-c2csc(Nc3ccccn3)n2)cc1
IC50 [2]: 65.8 µM (active)

Cc1[nH]c2ccccc2c1CCN(Cc1cccnc1)C(S)=Nc1ccc(F)cc1
IC50 [1]: > 50 µM (not active)
